Values quoted from earlier work in US9677978B2, “Fixative solution, for fixation and preservation of biological samples” (priority 2011, dated 2017).

Details: in 20 months; commercial biocide solutions stabilized by antioxidants

N#CC(Br)(Br)C(N)=O [DBPNA, 2,2-Dibromo-3-nitrilopropionamide]
degradation of DBPNA: < 10%
